The text below walks through data of patent US8410056B2, “Pro-oxidant anti-cancer compounds” (priority 2006, dated 2013).

For assay [1], the system named is NADH dehydrogenase (complex I). In words: Complex I (NADH dehydrogenase) activity. Type of assay: biochemical. The note with it: data not shown. As for the experimental part: Measurement of mitochondrial complex II and complex I activity. A time course for the reduction of the complex II substrate 2,6-dichlorophenol indophenol (DCIP) by the mitochondrial preparations was followed by measuring the absorbance at 600 nm in 1 cm cuvettes containing a 1 ml reaction volume (ε600=21×10^3 M^−1cm^−1). The reaction components included NADH, 0.5 mM; succinate, 5 mM; KCN, 10 mM; DCIP, 50 μM; PMS, 50 μM. For each assay point, 0.5 mg sample protein was used and α-TOS was added at either 100 or 300 μM as indicated. The change in absorbance of DCIP was measured using a spectrophotometer (UVIKON XL, Secomam) and replicate samples were assayed (n=3). When measuring the complex I (NADH dehydrogenase activity), PMS was omitted. […]
Additional support for the role of α-TOS in inhibiting mitochondrial respiratory complex II activity was sought by isolating subcellular fractions containing mitochondrial preparations from rat liver as well as membranous fractions from P. denitrificans. For these studies, the assay method of SDH/Complex II activity was based on that of King (1967) using phenazine methosulphate (PMS) and the terminal electron acceptor, 2,6-dichloroindophenol (DCIP) as the indicator dye by following the decrease in absorbance at 600 nm as it was reduced by SDH driven under conditions of high succinate. […]

For assay [2], the system named is MDA-MB-453 cells. In words: Apoptosis, annexin V-FITC method. Format: cell-based, human. As for the experimental part: Cell culture and treatment. […] Cells were cultured in DMEM with 10% FCS, 100 U/ml penicillin and 100 μg/ml streptomycin at 37° C. in a humidified atmosphere of 5% CO2. Mitochondrial complex I-deficient (Breen and Scheffler 1979; DeFrancesco et al 1976; Scheffler et al 2004) and complex II-deficient cells (Albayrak et al 2003; Oostveen et al 1995) were grown in DMEM with 10% FCS, […] glucose and non-essential amino acids.
At approximately 70% confluency, cells were treated with up to 50 μM α-TOS (Sigma), up to 100 μM 3-BP (Aldrich) or 30 ng/ml of human recombinant tumor necrosis factor-related apoptosis—inducing ligand (TRAIL) (Weber et al, 2002) under normoxic or hypoxic conditions. For hypoxia, cells overlaid with nitrogen-purged medium were placed in a hypoxic chamber pre-flushed extensively with nitrogen. The hypoxic chamber with cells was then placed in the incubator as required. α-TOS was dissolved in ethanol and used such that the final ethanol concentration in cell culture medium was <0.1% (v/v). Stock solutions of 3-BP were prepared in PBS prior to use.
Apoptosis assessment. Apoptosis was quantified using the annexin V-FITC method, which detects phosphatidyl serine externalized in the early phases of apoptosis (Boersma et al, 1996). Briefly, cells were plated at 10^5 per well in 24-well plates and, after an overnight recuperation, treated with α-TOS or 3-BP alone or in combination. Floating and attached cells were harvested, washed with PBS, resuspended in 0.2 ml binding buffer (10 mM Hepes, 140 mM NaCl, 5 mM CaCl2, pH 7.4), incubated for 30 min at 4° C. with 2 μl annexin V-FITC (PharMingen), supplemented with 200 μl of 50 μg/ml propidium iodide (PI; Sigma), and analyzed by flow cytometry (FACScalibur, Becton Dickinson) using channel 1 for annexin V-FITC binding and channel 2 for PI staining. Cell death was quantified as the percentage of cells with increased annexin V binding and PI staining.
RNA interference (RNAi). Short-interfering RNA (siRNA) oligonucleotides with 3′-dTdT overhangs specific for Akt1 were synthesized by Qiagen. The sequences are as follows: target sequence: […] (SEQ ID NO 2); siRNA duplex sequences: sense—r([…] )dTdT (SEQ ID NO 3), antisense—r([…] )dTdT (SEQ ID NO 4). The transfection of cultured MDA-MB-453 cells with siRNA was performed using OligofectAmine (Invitrogen) and OptiMEM according to the manufacturer's instructions. Briefly, cells were allowed to reach 50% confluency and supplemented with […] siRNA pre-incubated with OligofectAmine and overlayed with OptiMEM. Cells were washed 24 h later with PBS, overlayed with complete DMEM and treated as required after an additional 24 h.
Transfection of MDA-MB-453 cells with siRNAs was performed using OligofectAmine and OptiMEM. Briefly, cells were allowed to reach ˜50% confluency and supplemented with 60 pmol/l siRNA pre-incubated with OligofectAmine and overlayed with OptiMEM. Cells were washed 24 h later with PBS, overlaid with complete DMEM, cultured for an additional 24 h, 48 h and transgene expression confirmed using Western blotting before they were used for further experiments.

For the compound `Cc1c(C)c2c(c(C)c1OC(=O)CCC(=O)O)CC[C@@](C)(CCC[C@H](C)CCC[C@H](C)CCCC(C)C)O2` [Compound 1, α-tocopheryl succinate], in assay [1], the “NADH dehydrogenase (complex I) activity” value is “no effect”. Moreover, in assay [2] (MDA-MB-453 (erbB2-high), normoxia or hypoxia), the apoptosis result was “sensitive to apoptosis induced by α-TOS under both normoxia and hypoxia”. Moreover, the “apoptosis after Akt1 knock-down” value in assay [2] (pre-treated with 60 pM Akt1 siRNA for 24 h, then drug 24 h) is given as “sensitizes”.
